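Assay format: 96-well plates, 48-hour exposure. At the GI50, growth is halved. TGI: concentration producing complete growth inhibition.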
Legend:
Assay in all cases: inhibition of tumour cell growth, NCI panel, 48 h
PC-3 prostate = system: PC-3 prostate
HOP-92 NSCLC = system: HOP-92 NSCLC
SF-295 CNS = system: SF-295 CNS
SK-MEL-28 melanoma = system: SK-MEL-28 melanoma
OVCAR-4 ovarian = system: OVCAR-4 ovarian
TK-10 renal = system: TK-10 renal
MOLT-4 leukemia = system: MOLT-4 leukemia
SNB-75 CNS = system: SNB-75 CNS
CCRF-CEM leukemia = system: CCRF-CEM leukemia
SNB-19 CNS = system: SNB-19 CNS
A498 renal = system: A498 renal
OVCAR-5 ovarian = system: OVCAR-5 ovarian
SK-OV-3 ovarian = system: SK-OV-3 ovarian
HCT-116 colon = system: HCT-116 colon
NCI-H460 lung = system: NCI-H460 lung
ACHN renal = system: ACHN renal
786-0 renal = system: 786-0 renal
NCI-H23 lung = system: NCI-H23 lung
T-47D breast = system: T-47D breast
LOX IMVI melanoma = system: LOX IMVI melanoma
NCI/ADR-RES ovarian = system: NCI/ADR-RES ovarian
SK-MEL-5 melanoma = system: SK-MEL-5 melanoma
SF-268 CNS = system: SF-268 CNS
OVCAR-3 ovarian = system: OVCAR-3 ovarian
SN12C renal = system: SN12C renal
HT29 colon = system: HT29 colon
UO-31 renal = system: UO-31 renal
RXF 393 renal = system: RXF 393 renal
HS 578T breast = system: HS 578T breast
HCT-15 colon = system: HCT-15 colon
HL-60(TB) leukemia = system: HL-60(TB) leukemia
MALME-3M melanoma = system: MALME-3M melanoma
MDA-MB-468 breast = system: MDA-MB-468 breast
IGROV1 ovarian = system: IGROV1 ovarian
SK-MEL-2 melanoma = system: SK-MEL-2 melanoma
HCC-2998 colon = system: HCC-2998 colon
COLO 205 colon = system: COLO 205 colon
RPMI-8226 leukemia = system: RPMI-8226 leukemia
BT-549 breast = system: BT-549 breast
SW-620 colon = system: SW-620 colon
NCI-H522 lung = system: NCI-H522 lung
EKVX NSCLC = system: EKVX NSCLC
UACC-62 melanoma = system: UACC-62 melanoma
SF-539 CNS = system: SF-539 CNS
UACC-257 melanoma = system: UACC-257 melanoma
K-562 leukemia = system: K-562 leukemia
M14 melanoma = system: M14 melanoma
MDA-MB-435 = system: MDA-MB-435
CAKI-1 renal = system: CAKI-1 renal
MDA-MB-231 breast = system: MDA-MB-231 breast
MCF7 breast = system: MCF7 breast
NCI-H226 lung = system: NCI-H226 lung
U251 CNS = system: U251 CNS
OVCAR-8 ovarian = system: OVCAR-8 ovarian
KM12 colon = system: KM12 colon
HOP-62 NSCLC = system: HOP-62 NSCLC
A549 NSCLC = system: A549 NSCLC
DU-145 prostate = system: DU-145 prostate

Work on Cn1cc(NC(=O)c2cc(NC(=O)c3ccc(C#Cc4ccccc4)cc3)cn2C)cc1C(=O)NCCCN1CCOCC1 yielded a GI50 (PC-3 prostate) of 12.2 µM, a TGI (PC-3 prostate) of over 32.5 µM and a GI50 (HOP-92 NSCLC) of 5.05 µM. It also gave a TGI (HOP-92 NSCLC) of 20.4 µM, a GI50 (SF-295 CNS) of 12.6 µM and a TGI (SF-295 CNS) of over 32.5 µM. The GI50 (SK-MEL-28 melanoma) was over 32.5 µM, the TGI (SK-MEL-28 melanoma) was over 32.5 µM and the GI50 (OVCAR-4 ovarian) was 25.6 µM. It also gave a TGI (OVCAR-4 ovarian) of over 32.5 µM, a GI50 (TK-10 renal) of over 32.5 µM and a TGI (TK-10 renal) of over 32.5 µM. The GI50 (MOLT-4 leukemia) was 8.41 µM, the TGI (MOLT-4 leukemia) was over 32.5 µM and the GI50 (SNB-75 CNS) was 6.71 µM. The TGI (SNB-75 CNS) was over 32.5 µM, the GI50 (CCRF-CEM leukemia) was 6.76 µM and the TGI (CCRF-CEM leukemia) was over 32.5 µM. For the same compound, the GI50 (SNB-19 CNS) was over 32.5 µM, the TGI (SNB-19 CNS) was over 32.5 µM and the GI50 (A498 renal) was over 32.5 µM. It also gave a TGI (A498 renal) of over 32.5 µM, a GI50 (OVCAR-5 ovarian) of over 32.5 µM and a TGI (OVCAR-5 ovarian) of over 32.5 µM. It also gave a GI50 (SK-OV-3 ovarian) of over 32.5 µM, a TGI (SK-OV-3 ovarian) of over 32.5 µM and a GI50 (HCT-116 colon) of 8.36 µM. For the same compound, the TGI (HCT-116 colon) was over 32.5 µM, the GI50 (NCI-H460 lung) was 10.1 µM and the TGI (NCI-H460 lung) was over 32.5 µM. The GI50 (ACHN renal) was 16.4 µM, the TGI (ACHN renal) was over 32.5 µM and the GI50 (786-0 renal) was 9.11 µM. For the same compound, the TGI (786-0 renal) was 29.5 µM, the GI50 (NCI-H23 lung) was 14.3 µM and the TGI (NCI-H23 lung) was over 32.5 µM. For the same compound, the GI50 (T-47D breast) was 5.88 µM, the TGI (T-47D breast) was over 32.5 µM and the GI50 (LOX IMVI melanoma) was 4.94 µM. For the same compound, the TGI (LOX IMVI melanoma) was 9.38 µM, the GI50 (NCI/ADR-RES ovarian) was 7.66 µM and the TGI (NCI/ADR-RES ovarian) was 23.8 µM. For the same compound, the GI50 (SK-MEL-5 melanoma) was 11.3 µM, the TGI (SK-MEL-5 melanoma) was over 32.5 µM and the GI50 (SF-268 CNS) was 12.2 µM. For the same compound, the TGI (SF-268 CNS) was over 32.5 µM, the GI50 (OVCAR-3 ovarian) was 6.21 µM and the TGI (OVCAR-3 ovarian) was over 32.5 µM. The GI50 (SN12C renal) was 7.08 µM, the TGI (SN12C renal) was over 32.5 µM and the GI50 (HT29 colon) was 6.62 µM. The TGI (HT29 colon) was 22.9 µM, the GI50 (UO-31 renal) was 14 µM and the TGI (UO-31 renal) was over 32.5 µM. For the same compound, the GI50 (RXF 393 renal) was 2.55 µM, the TGI (RXF 393 renal) was 21.1 µM and the GI50 (HS 578T breast) was 7.04 µM. It also gave a TGI (HS 578T breast) of over 32.5 µM, a GI50 (HCT-15 colon) of 5.47 µM and a TGI (HCT-15 colon) of 13.7 µM. For the same compound, the GI50 (HL-60(TB) leukemia) was 5.19 µM, the TGI (HL-60(TB) leukemia) was 32.3 µM and the GI50 (MALME-3M melanoma) was 13.3 µM. It also gave a TGI (MALME-3M melanoma) of over 32.5 µM, a GI50 (MDA-MB-468 breast) of 7.75 µM and a TGI (MDA-MB-468 breast) of 25.5 µM. The GI50 (IGROV1 ovarian) was over 32.5 µM, the TGI (IGROV1 ovarian) was over 32.5 µM and the GI50 (SK-MEL-2 melanoma) was 6.15 µM. It also gave a TGI (SK-MEL-2 melanoma) of 14.4 µM, a GI50 (HCC-2998 colon) of 11.9 µM and a TGI (HCC-2998 colon) of over 32.5 µM. For the same compound, the GI50 (COLO 205 colon) was over 32.5 µM, the TGI (COLO 205 colon) was over 32.5 µM and the GI50 (RPMI-8226 leukemia) was 5.61 µM. It also gave a TGI (RPMI-8226 leukemia) of 32.3 µM, a GI50 (BT-549 breast) of 5.22 µM and a TGI (BT-549 breast) of 20 µM. For the same compound, the GI50 (SW-620 colon) was 9.25 µM, the TGI (SW-620 colon) was over 32.5 µM and the GI50 (NCI-H522 lung) was 8.72 µM. The TGI (NCI-H522 lung) was over 32.5 µM, the GI50 (EKVX NSCLC) was 10.6 µM and the TGI (EKVX NSCLC) was over 32.5 µM. For the same compound, the GI50 (UACC-62 melanoma) was 11 µM, the TGI (UACC-62 melanoma) was over 32.5 µM and the GI50 (SF-539 CNS) was 6.37 µM. It also gave a TGI (SF-539 CNS) of 14.5 µM, a GI50 (UACC-257 melanoma) of 18.9 µM and a TGI (UACC-257 melanoma) of over 32.5 µM. For the same compound, the GI50 (K-562 leukemia) was 8.4 µM, the TGI (K-562 leukemia) was over 32.5 µM and the GI50 (M14 melanoma) was 12.6 µM. The TGI (M14 melanoma) was over 32.5 µM, the GI50 (MDA-MB-435) was 9.91 µM and the TGI (MDA-MB-435) was over 32.5 µM. It also gave a GI50 (CAKI-1 renal) of 17.5 µM, a TGI (CAKI-1 renal) of over 32.5 µM and a GI50 (MDA-MB-231 breast) of 10.3 µM. For the same compound, the TGI (MDA-MB-231 breast) was over 32.5 µM, the GI50 (MCF7 breast) was 6.15 µM and the TGI (MCF7 breast) was 30.8 µM. For the same compound, the GI50 (NCI-H226 lung) was 16.6 µM, the TGI (NCI-H226 lung) was over 32.5 µM and the GI50 (U251 CNS) was 9.01 µM. For the same compound, the TGI (U251 CNS) was over 32.5 µM, the GI50 (OVCAR-8 ovarian) was 6.14 µM and the TGI (OVCAR-8 ovarian) was 20.2 µM. For the same compound, the GI50 (KM12 colon) was 11.2 µM, the TGI (KM12 colon) was over 32.5 µM and the GI50 (HOP-62 NSCLC) was 18 µM. It also gave a TGI (HOP-62 NSCLC) of over 32.5 µM, a GI50 (A549 NSCLC) of 20 µM and a TGI (A549 NSCLC) of over 32.5 µM. It also gave a GI50 (DU-145 prostate) of 11.6 µM and a TGI (DU-145 prostate) of over 32.5 µM.
